# Results published in US9232796B2, “Herbicidal compositions comprising 4-amino-3-chloro-5-fluoro-6-(4-chloro-2-fluoro-3-methoxyphenyl) pyridine-2-carboxylic acid or a derivative thereof and acetyl-CoA carboxylase (ACCase) inhibitors” (DOW AGROSCIENCES LLC, priority 2012, dated 2016).
# Legend:
# [1] = test system: ECHCG; experiment: Example VI in-water applied ternary mixtures, greenhouse, transplanted paddy rice weeds; format: in vivo, Echinochloa crus-galli (L.) Beauv.
# Experimental: (§1) Weed seeds or nutlets of the desired test plant species were planted in puddled soil (mud) prepared by mixing a shredded, non-sterilized mineral soil (50.5 percent silt, 25.5 percent clay, and 24 percent sand, with a pH of about 7.6 and an organic matter content of about 2.9 percent) and water at a 1:1 volumetric ratio. The prepared mud was dispensed in 365 mL aliquots into 16-ounce (oz.) non-perforated plastic pots with a surface area of 86.59 square centimeters (cm^2) leaving a headspace of 3 centimeters (cm) in each pot. Mud was allowed to dry overnight prior to planting or transplanting. Rice seeds were planted in Sun Gro MetroMix® 306 planting mixture, which typically has a pH of 6.0 to 6.8 and an organic matter content of about 30 percent, in plastic plug trays. Seedlings at the second or third leaf stage of growth were transplanted into 860 mL of mud contained in 32-oz. non-perforated plastic pots with a surface area of 86.59 cm^2 4 days prior to herbicide application. The paddy was created by filling the headspace of the pots with 2.5 to 3 cm of water. When required to ensure good germination and healthy plants, a fungicide treatment and/or other chemical or physical treatment was applied. The plants were grown for 4-22 days in a greenhouse with an approximate 14 hr. photoperiod which was maintained at about 29° C. during the day and 26° C. during the night. Nutrients were added as Osmocote® (19:6:12, N:P:K+minor nutrients) at 2 g per 16-oz. pot and 4 g per 32-oz. pot. Water was added on a regular basis to maintain the paddy flood, and supplemental lighting was provided with overhead metal halide 1000-Watt lamps as necessary. The plants were employed for testing when they reached the first through fourth true leaf stage.
# (§2) Treatments consisted of the benzyl ester of 4-amino-3-chloro-5-fluoro-6-(4-chloro-2-fluoro-3-methoxy-phenyl)pyridine-2-carboxylic acid (Compound A), formulated as an SC (suspension concentrate), an ACCase inhibitor herbicide, and a third herbicidal component, each applied alone and in ternary combination. Forms of compound A were applied on an acid equivalent basis.
# (§3) The ACCase inhibitor component was applied on an active ingredient basis and included cyhalofop-R-butyl formulated as Clincher® G and metamifop formulated as Metamifop EC. Other herbicidal components were applied on an active ingredient or acid equivalent basis depending on the compound and included penoxsulam formulated as Grasp® SC, bentazon sodium formulated as Basagran®, triclopyr […] (TEA) salt formulated as Grandstand® R, benzobicyclon formulated as Benzobicyclon, benfuresate formulated as Full Slot® WG, pyraclonil formulated as Pyraclon® Flowable, mefenacet (technical grade material), and pretilachlor (technical grade material).
# (§4) Treatment requirements for each compound or herbicidal component were calculated based upon the rates being tested, the concentration of active ingredient or acid equivalent in the formulation, an application volume of 1 mL per component per pot, and an application area of 86.59 cm^2 per pot.
# (§5) For formulated compounds, a measured amount was placed in an individual 100 or 200 mL glass vial and was dissolved in a volume of 1.25% (v/v) Agri-Dex® crop oil concentrate to obtain application solutions.
# (§6) For technical grade compounds, a weighed amount was placed in an individual 100 to 200 mL glass vial and was dissolved in a volume of acetone to obtain concentrated stock solutions.
# (§7) Applications were made by injecting with a pipetter appropriate amounts of the application solutions, into the aqueous layer of the paddy. Control plants were treated in the same manner with the solvent blank. Applications were made so that all treated plant material received the same concentrations of acetone and crop oil concentrate.
# (§8) The treated plants and control plants were placed in a greenhouse as described above and water was added as needed to maintain a paddy flood. […]
# [2] = test system: FIMMI; experiment: as above; format: in vivo, Fimbristylis miliacea (L.) Vahl
# Experimental: as §1, §2, §3, §4, §5, §6, §7, §8
# [3] = test system: CYPIR; experiment: Example I postemergence foliar-applied, greenhouse, direct seeded rice weeds; format: in vivo, Cyperus iria L.
# Source text: Seeds or nutlets of the desired test plant species were planted in a soil matrix prepared by mixing a loam or sandy loam soil (e.g., 28.6 percent silt, 18.8 percent clay, and 52.6 percent sand, with a pH of about 5.8 and an organic matter content of about 1.8 percent) and calcareous grit in an 80 to 20 ratio. The soil matrix was contained in plastic pots with a volume of 1 quart and a surface area of 83.6 square centimeters (cm^2). When required to ensure good germination and healthy plants, a fungicide treatment and/or other chemical or physical treatment was applied. The plants were grown for 8-22 days in a greenhouse with an approximate 14 hr. photoperiod which was maintained at about 29° C. during the day and 26° C. during the night. Nutrients (Peters Excel® 15-5-15 5-Ca 2-Mg and iron chelate) were applied in the irrigation solution as needed and water was added on a regular basis. Supplemental lighting was provided with overhead metal halide 1000-Watt lamps as necessary. The plants were employed for testing when they reached the first through fourth true leaf stage.
# Treatments consisted of the acid or esters of 4-amino-3-chloro-5-fluoro-6-(4-chloro-2-fluoro-3-methoxy-phenyl)pyridine-2-carboxylic acid (Compound A), each formulated as an SC (suspension concentrate), and various herbicidal components alone and in combination.
# Other herbicidal components were applied on an acid equivalent (ae) or active ingredient (ai) basis and included acetyl coA carboxylase (ACCase)-inhibiting herbicides (cyclohexanedione and aryloxyphenoxypropionate chemical classes) cyhalofop-butyl formulated as Clincher® SF (285 gr ai/L EC), diclofop-methyl formulated as Hoelon® 3EC, fenoxaprop-p-ethyl+isoxadifen-ethyl formulated as RiceStar® HT (0.58 lb./gal EC), fenoxaprop-p-ethyl+mefenpyr diethyl formulated as Puma® IEC, metamifop formulated as Metamifop EC, haloxyfop-methyl formulated as Gallant Super®, fluazifop-p-butyl formulated as Fusilade® DX, quizalofop-p-ethyl formulated as Assure® II, profoxydim formulated as Aura® 20EC, clethodim applied as Intensity®, sethoxydim formulated as Poast®, and tralkoxydim formulated as Achieve®.
# (§9) Treatment requirements were calculated based upon the rates being tested, the concentration of active ingredient or acid equivalent in the formulation, and a 12 mL application volume at a rate of 187 L/ha.
# For treatments comprised of formulated compounds, measured amounts of compounds were placed individually in 25 mL glass vials and diluted in a volume of 1.25% (v/v) Agri-Dex® crop oil concentrated to obtain 12× stock solutions. […] Application solutions were prepared by adding an appropriate amount of each stock solution (e.g., 1 mL) and diluted to the appropriate final concentrations with the addition of 10 mL of an aqueous mixture of 1.25% (v/v) crop oil concentrate so that the final spray solutions contained 1.25+/−0.05% (v/v) crop oil concentrate.
# All stock solutions and applications solutions were visually inspected for compound compatibility prior to application. Spray solutions were applied to the plant material with an overhead Mandel track sprayer equipped with a 8002E nozzles calibrated to deliver 187 L/ha over an application area of 0.503 m^2 at a spray height of 18 to 20 inches (46 to 50 cm) above average plant canopy height. Control plants were sprayed in the same manner with the solvent blank.
# The treated plants and control plants were placed in a greenhouse as described above and watered by sub-irrigation to prevent wash-off of the test compounds. After approximately 3 weeks, the condition of the test plants as compared with that of the untreated plants was determined visually and scored on a scale of 0 to 100 percent where 0 corresponds to no injury or growth inhibition and 100 corresponds to complete kill. […]
# [4] = test system: ECHCG; experiment: Example V (second) postemergence foliar-applied ternary mixtures, greenhouse, direct seeded rice weeds; format: in vivo, Echinochloa crus-galli (L.) Beauv.; details: 200 gai/ha
# Source text: Seeds or nutlets of the desired test plant species were planted in a soil matrix prepared by mixing a sandy loam or loam soil (e.g., 32 percent silt, 23 percent clay, and 45 percent sand, with a pH of about 6.5 and an organic matter content of about 1.9 percent) and calcareous grit in an 80 to 20 ratio. The soil matrix was contained in plastic pots with a volume of 1 quart and a surface area of 83.6 square centimeters (cm^2). When required to ensure good germination and healthy plants, a fungicide treatment and/or other chemical or physical treatment was applied. The plants were grown for 8-22 days in a greenhouse with an approximate 14 hr. photoperiod which was maintained at about 29° C. during the day and 26° C. during the night. Nutrients (Peters Excel® 15-5-15 5-Ca 2-Mg and iron chelate) were applied in the irrigation solution as needed and water was added on a regular basis. Supplemental lighting was provided with overhead metal halide 1000-Watt lamps as necessary. The plants were employed for testing when they reached the first through fourth true leaf stage.
# Treatments consisted of the benzyl ester of 4-amino-3-chloro-5-fluoro-6-(4-chloro-2-fluoro-3-methoxy-phenyl)pyridine-2-carboxylic acid (Compound A), formulated as an SC (suspension concentrate), an ACCase inhibitor, and a third herbicidal component, each applied alone and in ternary combination. Forms of compound A were applied on an acid equivalent basis.
# The ACCase inhibitor component was applied on an active ingredient basis and included cyhalofop-R-butyl formulated as Clincher® SF, fenoxaprop-p-ethyl formulated as RiceStar® HT, and profoxydim formulated as Aura® 20EC. Other herbicidal components were applied on an active ingredient or acid equivalent basis depending on the compound and included penoxsulam formulated as Grasp® SC, bentazon sodium formulated as Basagran®, triclopyr […] (TEA) salt formulated as Grandstand® R, bispyribac sodium formulated as Regiment® 80WP, imazamox ammonium formulated as Beyond®, benzobicyclon, quinclorac formulated as Facet® 75DF, glyphosate dimethylammonium (DMA) salt formulated as Durango® DMA, glufosinate ammonium formulated as Ignite® 280, fentrazamide formulated as an emulsifiable concentrate (EC), propyrisulfuron formulated as Zeta One®, and indanofan (technical grade material).
# as §9
# For treatments comprised of formulated compounds, measured amounts of compounds were placed individually in 25 mL glass vials and diluted in a volume of 1.25% (v/v) Agri-Dex® crop oil concentrate to obtain 12× stock solutions. […] Application solutions were prepared by adding an appropriate amount of each stock solution (e.g., 1 mL) and diluted to the appropriate final concentrations with the addition of 9 mL of an aqueous mixture of 1.25% (v/v) crop oil concentrate so that the final spray solutions contained 1.25% (v/v) crop oil concentrate.
# As required, additional water and/or 97:3 v/v acetone/DMSO was added to individual application solutions so that the final acetone and DMSO concentrations of the application solutions being compared were 8.1% and 0.25%, respectively.
# All stock solutions and applications solutions were visually inspected for compound compatibility prior to application. Spray solutions were applied to the plant material with an overhead Mandel track sprayer equipped with a 8002E nozzles calibrated to deliver 187 L/ha over an application area of 0.503 m^2 at a spray height of 18 inches (46 cm) above average plant canopy height. Control plants were sprayed in the same manner with the solvent blank.
# The treated plants and control plants were placed in a greenhouse as described above and watered by sub-irrigation to prevent wash-off of the test compounds. […]
# [5] = test system: IPOHE; experiment: as above; format: in vivo, Ipomoea hederacea Jacq.
# Experimental: The treated plants and control plants were placed in a greenhouse as described above and watered by sub-irrigation to prevent wash-off of the test compounds. After approximately 3 weeks, the condition of the test plants as compared with that of the untreated plants was determined visually and scored on a scale of 0 to 100 percent where 0 corresponds to no injury or growth inhibition and 100 corresponds to complete kill.
# Colby's equation was used to determine the herbicidal effects expected from the mixtures (Colby, S. R. 1967. Calculation of the synergistic and antagonistic response of herbicide combinations. Weeds 15:20-22.).
# The following equation was used to calculate the expected activity of mixtures containing three active ingredients, A, B, and C: Expected=A+B+C−((A×B+A×C+B×C)/100)+(A×B×C/10000)
# [6] = test system: CYPRO; experiment: Example VI in-water applied ternary mixtures, greenhouse, transplanted paddy rice weeds; format: in vivo, Cyperus rotundus L.; details: 21 DAA
# Experimental: as §1, §2, §3, §4, §5, §6, §7, §8
smiles,measurement,setting,value
CC(C)N1C(=O)c2ccccc2NS1(=O)=O [Bentazon Sodium],Visual Weed Control (%) - 21 DAA ECHCG Obs,"[1]; 210 gae/ha, first set",0%
same,Visual Weed Control (%) - 21 DAA ECHCG Obs,"[1]; 420 gae/ha, second set",15%
same,Visual Weed Control (%) - 21 DAA FIMMI Obs,"[2]; 210 gae/ha, first set",17%
same,Visual Weed Control (%) - 21 DAA FIMMI Obs,"[2]; 420 gae/ha, second set",30%
CCS(=O)(=O)Oc1ccc2c(c1)C(C)(C)CO2 [Benfuresate],Visual Weed Control (%) - 21 DAA ECHCG Obs,[1]; 150 gai/ha,0%
"COC(=O)C(C)Oc1ccc(Oc2ccc(Cl)cc2Cl)cc1 (stereo not shown) [Diclofop-methyl, methyl 2-[4-(2,4-dichlorophenoxy)phenoxy]propanoate]",Visual Weed Control (%) - 22 DAA CYPIR Obs,[3]; 280 gai/ha,0%
same,Visual Weed Control (%) - 22 DAA CYPIR Obs,[3]; 560 gai/ha,0%
same,Visual Weed Control (%) - 22 DAA CYPIR Obs,[3]; 1120 gai/ha,0%
CS(=O)(=O)c1ccc(C(=O)C2=C(Sc3ccccc3)C3CCC(C3)C2=O)c(Cl)c1 (stereo not shown) [Benzobicyclon],Visual Weed Control (%) - 21 DAA ECHCG Obs,[4],0%
same,Visual Weed Control (%) - 21 DAA IPOHE Obs,[5]; 200 gai/ha,55%
CC(C)N1C(=O)c2ccccc2NS1(=O)=O [Bentazon sodium],Visual Weed Control (%) - 21 DAA IPOHE Obs,"[5]; 420 gae/ha, lower sub-table",75%
same,Visual Weed Control (%) - 21 DAA IPOHE Obs,"[5]; 420 gae/ha, upper sub-table",53%
CN(C(=O)COc1nc2ccccc2s1)c1ccccc1 [Mefenacet],Visual Weed Control (%) - 21 DAA CYPRO Obs,"[6]; Table 69, 75 gai/ha",0%
same,Visual Weed Control (%) - 21 DAA CYPRO Obs,"[6]; Table 69, 150 gai/ha",0%
CCCOCCN(C(=O)CCl)c1c(CC)cccc1CC [Pretilachlor],Visual Weed Control (%) - 21 DAA CYPRO Obs,"[6]; Table 70, 25 gai/ha",0%
same,Visual Weed Control (%) - 21 DAA CYPRO Obs,"[6]; Table 70, 50 gai/ha",0%
